# Test results published in US7544479B2, “Method for identifying MLK inhibitors for treatment of neurological conditions” (priority 1998, dated 2009).
# B1: SEK1 (K54R): dominant negative mutant of SEK1, known to specifically block JNK activation; expressed from a vector (protein, UniProt P45985 2-399, looked up, variant K54R)
# Dual specificity …: AAPSPSGGGGSGGGSGSGTPGPVGSPAPGHPAVSSMQGKRKALKLNFANPPFRSTARFTLNPNPTGVQNPHIERLRTHSIESSGKLKISPEQHWDFTAEDLKDLGEIGRGAYGSVNKMVHKPSGQIMAVKRIRSTVDEKEQKQLLMDLDVVMRSSDCPYIVQFYGALFREGDCWICMELMSTSFDKFYKYVYSVLDDVIPEEILGKITLATVKALNHLKENLKIIHRDIKPSNILLDRSGNIKLCDFGISGQLVDSIAKTRDAGCRPYMAPERIDPSASRQGYDVRSDVWSLGITLYELATGRFPYPKWNSVFDQLTQVVKGDPPQLSNSEEREFSPSFINFVNLCLTKDESKRPKYKELLKHPFILMYEERAVEVACYVCKILDQMPATPSSPMYVD
# modifications: expressed from vector; dominant negative
# Key:
# JNK = JNK activity in HN33 cell lysates (GST-c-Jun phosphorylation, Western blot); format: cell-based, rat; details: glutamate 250 μM or kainic acid 200 μM, room temperature, 15 minutes
# HN33 cells [1] = details: for induction of apoptotic cell death of HN33 cells: glutamate 250 μM or kainic acid 200 μM
# NMDA receptor = details: rats given glutamate, quinolinic acid or kainic acid; cited from earlier work
# HN33 cells [2] = assay: TUNEL assay of apoptosis induced by expression of APP-C-100 in HN33 cells; format: cell-based, rat; details: 48 hours after transfection
# Text: To determine the role of activation of the SEK1-JNK signal transduction pathway in Alzheimer's diseases, a cDNA fragment encoding the full-length (Kang, J., et al., Nature, 325:733-736 (1987)) or the last C-terminal 100 amino acid of amyloid precursor protein (APP) was inserted into pcDNA1 and the resulting plasmid was designated as APP-C-100. HN33 cells (60% of confluence) was transfected with pcDNA1 (control), wild-type APP, APP-C-100 by using lipofectin (Boehringer Mannheim) according to manufacture instruction. Thirty μl of lipofectin/50 mm plate was used in all transfection experiments. Twelve to seventy-two hours after transfection, HN33 cells were fixed with 4% paraformaldehyde and permeabilized with 0.1% of Triton X-100. […] TUNEL negative cells were counted under light microscope.
# To further determine the role of activation of the JNK activation in Alzheimer's diseases, HN33 cells were transfected with pcDNA1, wild-type APP expression vector, or mutant SEK1 expression vector using lipofectin (Boehringer Mannheim) according to manufacture instruction. […] TUNEL negative cells (living cells) were counted.
# To determine further the role of activation of the MLK activation in Alzheimer's diseases, HN33 cells were co-transfected with pcDNA1, wild-type expression vector, with kinase dead MLK2 expression vector. […] TUNEL negative cells (living cells) were counted.
# HN33 cells [3] = assay: TUNEL assay of apoptosis induced by expression of MLK2 in HN33 cells; format: cell-based, rat; details: co-transfection with wild-type MLK2; 48 hours after transfection
# Text: To examine whether expression of MLK2 induces neuronal cell death, HN33 cells were transfected with pRK5CMV, wild-type or kinase dead MLK2 expression vector using lipofectin (Boehringer Mannheim) according to manufacture instruction. Forty-eight hours after transfection, cells were fixed and stained with TUNEL, as described above. TUNEL negative cells (living cells) were counted.
# To determine whether the role of the SEK1-JNK signal transduction pathway in neuronal cell death induced by expression of MLK2, HN33 cells were co-transfected with pEBG+pRK5CMV (control), wild-type SEK1 expression vector+wild-type MLK2 expression vector, or dominant negative mutant SEK1 (K54R) expression vector+wild-type MLK2 expression vector. Forty-eight hours after transfection, cells were fixed and stained with TUNEL. TUNEL negative cells (living cells) were counted.
Molecule,JNK activity (JNK),induction of apoptotic cell death of HN33 cells (HN33 cells [1]),other results
N[C@@H](CCC(=O)O)C(=O)O [glutamate],induced elevation of the JNK activity,apoptotic cell death,–
C=C(C)[C@H]1CN[C@H](C(=O)O)[C@H]1CC(=O)O [kainic acid],induced elevation of the JNK activity,apoptotic cell death,–
C[C@]12N[C@H](Cc3ccccc31)c1ccccc12 [MK-801],–,–,induction of c-Jun expression and neuronal apoptosis (NMDA receptor): blocked
B1,–,–,"apoptosis induced by expression of APP-C-100, effect of co-expression (HN33 cells [2]): blocks; apoptosis induced by MLK expression, effect of co-expression (HN33 cells [3]): attenuated; apoptosis induced by glutamate or kainate receptor activation, effect of expression (HN33 cells [1]; 250 μM glutamate or 200 μM kainate for six hours, 48 hours after transfection): blocks"
